Results taken from BindingDB's records for doi:10.1016/j.bmc.2016.11.012 (China Pharmaceutical University, 2017).

Test: Inhibition of rabbit thrombin-induced platelet aggregation in rabbit platelet-rich plasma preincubated with rabbit liver microsomes for 4 hrs followed by addition to platelet

Compound	IC50 [µM]
CC(C)COC(=O)/N=C(\N)c1ccc(CC2c3nc4cc(C5(C(=O)N6CCCC6)CCCC5)ccc4n3CCN2C(=O)OCC(C)C)cc1 (stereo unspecified)	> 1000
CC(C)(C)OC(=O)/N=C(\N)c1ccc(CC2NCCn3c2nc2cc(C4(C(=O)N5CCCC5)CCCC4)ccc23)cc1 (stereo unspecified)	8.16
Cc1nc(C)c(OC(=O)/N=C(\N)c2ccc(CC3NCCn4c3nc3cc(C5(C(=O)N6CCCC6)CCCC5)ccc34)cc2)nc1C (stereo unspecified)	1.95
CC(C)(C)OC(=O)/N=C(\N)c1ccc(CC2c3nc4cc(C5(C(=O)N6CCCC6)CCCC5)ccc4n3CCN2C(=O)OC(C)(C)C)cc1 (stereo unspecified)	> 1000
CC(C)COC(=O)/N=C(\N)c1ccc(CC2NCCn3c2nc2cc(C4(C(=O)N5CCCC5)CCCC4)ccc23)cc1 (stereo unspecified)	164

The next lines start with the values.

IC50 [µM]	Compound
0.554	CCCCCCOC(=O)N=C(N)c1ccc(NCc2nc3cc(C(=O)N(CCC(=O)OCC)c4ccccn4)ccc3n2C)cc1 [BIBR-1048]
91.5	CCCCCCOC(=O)/N=C(\N)c1ccc(CC2c3nc4cc(C5(C(=O)N6CCCC6)CCCC5)ccc4n3CCN2C(=O)OCCCCCC)cc1 (stereo unspecified)
25.3	CCCCCCOC(=O)/N=C(\N)c1ccc(CC2NCCn3c2nc2cc(C4(C(=O)N5CCCC5)CCCC4)ccc23)cc1 (stereo unspecified)
91.2	N/C(=N\C(=O)OCc1ccccc1)c1ccc(CC2NCCn3c2nc2cc(C4(C(=O)N5CCCC5)CCCC4)ccc23)cc1 (stereo unspecified)
> 1000	N/C(=N\C(=O)OCc1ccccc1)c1ccc(CC2c3nc4cc(C5(C(=O)N6CCCC6)CCCC5)ccc4n3CCN2C(=O)OCc2ccccc2)cc1 (stereo unspecified)
88.2	CCOC(=O)/N=C(\N)c1ccc(CC2NCCn3c2nc2cc(C4(C(=O)N5CCCC5)CCCC4)ccc23)cc1 (stereo unspecified)
